Results: PubChem BioAssay (NCI)
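The compound was tested at five concentrations on cells cultured in 96-well plates, with a 48-hour exposure period. TGI denotes the concentration required for complete inhibition of growth.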

Assays:
Assay in all cases: NCI tumour cell line growth inhibition, 48 h
SK-MEL-28 melanoma = test system: SK-MEL-28 melanoma
SNB-19 CNS = test system: SNB-19 CNS
MDA-N = test system: MDA-N
UACC-62 melanoma = test system: UACC-62 melanoma
NCI-H23 lung = test system: NCI-H23 lung
RPMI-8226 leukemia = test system: RPMI-8226 leukemia
MDA-MB-435 = test system: MDA-MB-435
NCI-H460 lung = test system: NCI-H460 lung
COLO 205 colon = test system: COLO 205 colon
NCI-H226 lung = test system: NCI-H226 lung
UO-31 renal = test system: UO-31 renal
786-0 renal = test system: 786-0 renal
SW-620 colon = test system: SW-620 colon
HOP-92 NSCLC = test system: HOP-92 NSCLC
SF-268 CNS = test system: SF-268 CNS
U251 CNS = test system: U251 CNS
EKVX NSCLC = test system: EKVX NSCLC
UACC-257 melanoma = test system: UACC-257 melanoma
HT29 colon = test system: HT29 colon
PC-3 prostate = test system: PC-3 prostate
M14 melanoma = test system: M14 melanoma
MDA-MB-231 breast = test system: MDA-MB-231 breast
LOX IMVI melanoma = test system: LOX IMVI melanoma
MOLT-4 leukemia = test system: MOLT-4 leukemia
HCT-15 colon = test system: HCT-15 colon
TK-10 renal = test system: TK-10 renal
CAKI-1 renal = test system: CAKI-1 renal
HL-60(TB) leukemia = test system: HL-60(TB) leukemia
MCF7 breast = test system: MCF7 breast
SK-MEL-5 melanoma = test system: SK-MEL-5 melanoma
A549 NSCLC = test system: A549 NSCLC
OVCAR-8 ovarian = test system: OVCAR-8 ovarian
KM12 colon = test system: KM12 colon
DU-145 prostate = test system: DU-145 prostate
OVCAR-5 ovarian = test system: OVCAR-5 ovarian
SN12C renal = test system: SN12C renal
T-47D breast = test system: T-47D breast
HOP-62 NSCLC = test system: HOP-62 NSCLC
OVCAR-3 ovarian = test system: OVCAR-3 ovarian
CCRF-CEM leukemia = test system: CCRF-CEM leukemia
HCT-116 colon = test system: HCT-116 colon
MALME-3M melanoma = test system: MALME-3M melanoma
NCI/ADR-RES ovarian = test system: NCI/ADR-RES ovarian
SK-MEL-2 melanoma = test system: SK-MEL-2 melanoma
BT-549 breast = test system: BT-549 breast
SF-295 CNS = test system: SF-295 CNS
IGROV1 ovarian = test system: IGROV1 ovarian
HS 578T breast = test system: HS 578T breast
K-562 leukemia = test system: K-562 leukemia
OVCAR-4 ovarian = test system: OVCAR-4 ovarian
NCI-H522 lung = test system: NCI-H522 lung
SK-OV-3 ovarian = test system: SK-OV-3 ovarian
SR leukemia = test system: SR leukemia
SNB-75 CNS = test system: SNB-75 CNS
ACHN renal = test system: ACHN renal

`Cc1ccc(N2C(=O)C3c4[nH]c5ccc(C)cc5c4C4CCC(C(C)(C)C)CC4C3C2=O)cc1` (stereo not given) was tested, and the TGI (SK-MEL-28 melanoma) was 90.6 µM, the TGI (SNB-19 CNS) was 80.5 µM and the TGI (MDA-N) was 70.1 µM. It also gave a TGI (UACC-62 melanoma) of 30 µM, a TGI (NCI-H23 lung) of 39.7 µM and a TGI (RPMI-8226 leukemia) of 46.3 µM. It also gave a TGI (MDA-MB-435) of 55.1 µM, a TGI (NCI-H460 lung) of 20.4 µM and a TGI (COLO 205 colon) greater than 100 µM. The TGI (NCI-H226 lung) was 48.7 µM, the TGI (UO-31 renal) was greater than 100 µM and the TGI (786-0 renal) was 17.1 µM. It also gave a TGI (SW-620 colon) of 58.7 µM, a TGI (HOP-92 NSCLC) of 52.1 µM and a TGI (SF-268 CNS) of 33.2 µM. The TGI (U251 CNS) was 27.7 µM, the TGI (EKVX NSCLC) was 43.4 µM and the TGI (UACC-257 melanoma) was greater than 100 µM. For the same compound, the TGI (HT29 colon) was 75.5 µM, the TGI (PC-3 prostate) was 70.3 µM and the TGI (M14 melanoma) was greater than 100 µM. It also gave a TGI (MDA-MB-231 breast) of 26.7 µM, a TGI (LOX IMVI melanoma) of 55.6 µM and a TGI (MOLT-4 leukemia) of 8.06 µM. The TGI (HCT-15 colon) was greater than 100 µM, the TGI (TK-10 renal) was 39.5 µM and the TGI (CAKI-1 renal) was 45.3 µM. It also gave a TGI (HL-60(TB) leukemia) of 82.8 µM, a TGI (MCF7 breast) of 28.7 µM and a TGI (SK-MEL-5 melanoma) greater than 100 µM. For the same compound, the TGI (A549 NSCLC) was 32.8 µM, the TGI (OVCAR-8 ovarian) was 24.4 µM and the TGI (KM12 colon) was 62.4 µM. For the same compound, the TGI (DU-145 prostate) was 62 µM, the TGI (OVCAR-5 ovarian) was 30.8 µM and the TGI (SN12C renal) was 27.3 µM. The TGI (T-47D breast) was 25.9 µM, the TGI (HOP-62 NSCLC) was 24.5 µM and the TGI (OVCAR-3 ovarian) was 27.3 µM. It also gave a TGI (CCRF-CEM leukemia) of 26.7 µM, a TGI (HCT-116 colon) of 37.1 µM and a TGI (MALME-3M melanoma) of 44.4 µM. It also gave a TGI (NCI/ADR-RES ovarian) of 60.2 µM, a TGI (SK-MEL-2 melanoma) of 99.5 µM and a TGI (BT-549 breast) of 75.9 µM. The TGI (SF-295 CNS) was 40.7 µM, the TGI (IGROV1 ovarian) was 36.5 µM and the TGI (HS 578T breast) was 44 µM. The TGI (K-562 leukemia) was 16.1 µM, the TGI (OVCAR-4 ovarian) was 20.9 µM and the TGI (NCI-H522 lung) was 39.4 µM.
`O=C(Sc1c(-c2ccccc2)c(=O)n(-c2ccccc2)c(=S)n1-c1ccccc1)c1ccccc1` was tested, and the TGI (SK-MEL-28 melanoma) was greater than 100 µM, the TGI (SNB-19 CNS) was greater than 100 µM and the TGI (MDA-N) was greater than 100 µM. The TGI (UACC-62 melanoma) was greater than 100 µM, the TGI (SK-OV-3 ovarian) was greater than 100 µM and the TGI (NCI-H23 lung) was greater than 100 µM. For the same compound, the TGI (SR leukemia) was greater than 100 µM, the TGI (RPMI-8226 leukemia) was greater than 100 µM and the TGI (MDA-MB-435) was greater than 100 µM. The TGI (NCI-H460 lung) was greater than 100 µM, the TGI (COLO 205 colon) was greater than 100 µM and the TGI (NCI-H226 lung) was greater than 100 µM. It also gave a TGI (UO-31 renal) greater than 100 µM, a TGI (786-0 renal) greater than 100 µM and a TGI (SW-620 colon) greater than 100 µM. It also gave a TGI (HOP-92 NSCLC) of 71.9 µM, a TGI (SF-268 CNS) greater than 100 µM and a TGI (U251 CNS) greater than 100 µM. It also gave a TGI (SNB-75 CNS) of 88.2 µM, a TGI (EKVX NSCLC) greater than 100 µM and a TGI (UACC-257 melanoma) greater than 100 µM. It also gave a TGI (HT29 colon) greater than 100 µM, a TGI (PC-3 prostate) greater than 100 µM and a TGI (M14 melanoma) greater than 100 µM. It also gave a TGI (LOX IMVI melanoma) greater than 100 µM, a TGI (MOLT-4 leukemia) of 73.3 µM and a TGI (HCT-15 colon) greater than 100 µM. The TGI (TK-10 renal) was greater than 100 µM, the TGI (CAKI-1 renal) was greater than 100 µM and the TGI (HL-60(TB) leukemia) was greater than 100 µM. The TGI (MCF7 breast) was greater than 100 µM, the TGI (SK-MEL-5 melanoma) was greater than 100 µM and the TGI (A549 NSCLC) was greater than 100 µM. It also gave a TGI (OVCAR-8 ovarian) greater than 100 µM, a TGI (KM12 colon) greater than 100 µM and a TGI (DU-145 prostate) greater than 100 µM. For the same compound, the TGI (OVCAR-5 ovarian) was greater than 100 µM, the TGI (SN12C renal) was greater than 100 µM and the TGI (T-47D breast) was greater than 100 µM. The TGI (HOP-62 NSCLC) was greater than 100 µM, the TGI (OVCAR-3 ovarian) was greater than 100 µM and the TGI (CCRF-CEM leukemia) was 76.3 µM. The TGI (HCT-116 colon) was greater than 100 µM, the TGI (MALME-3M melanoma) was greater than 100 µM and the TGI (NCI/ADR-RES ovarian) was greater than 100 µM. It also gave a TGI (SK-MEL-2 melanoma) greater than 100 µM, a TGI (BT-549 breast) greater than 100 µM and a TGI (SF-295 CNS) greater than 100 µM. For the same compound, the TGI (IGROV1 ovarian) was greater than 100 µM, the TGI (HS 578T breast) was greater than 100 µM and the TGI (ACHN renal) was greater than 100 µM. The TGI (K-562 leukemia) was greater than 100 µM, the TGI (OVCAR-4 ovarian) was greater than 100 µM and the TGI (NCI-H522 lung) was greater than 100 µM.
